Several values for one entry are separate records, joined by “and”; a condition that tells them apart may be missing. Identical values can stand only once. Entries after “also recorded” stand apart in the source; their conditions may differ. Like-named read-outs stand apart in the source and are kept apart here. A value given as a limit tells only on which side of the number the result lay.

One series addresses T1, recombinant human htau40 (Homo sapiens, UniProt P10636).
T1 construct: synthetic straight filaments prepared from recombinant full-length tau; made in house
Nature of the series: Thioflavin S fluorescence assay of arachidonic acid-induced tau polymerization. The class given is biochemical. How it is done: (§1) Tau Polymerization. Purified isoforms of tau were polymerized as described previously (Wilson et al., Am. J. Pathol. 150: 2181 (1997); King et al., Biochemistry 38: 14851 (1999); King et al., J. Neurochem. 74: 1749 (2000)). Briefly, 2-8 mM (final concentration) htau40 or mutant htau40^C291A, C322A was incubated at room temperature in the presence or absence of 2-[[4-(dimethylamino)phenyl]azo]-6-methoxylbenzothiazole (compound I′) with polymerization buffer (10 mM 4-[2-hydroxyethyl]-1-piperazineethanesulfonic acid, 100 mM NaCl, and 5 mM DTT) containing 4 mM thioflavin S. Polymerization was induced by the addition of arachidonic acid (75-100 mM) and continued until analyzed by fluorescence or electron microscopy assays described below. When present, compound I′ final concentration varied from 0.05-2 mM. Control reactions were normalized for DMSO vehicle, which was limited to 5% in all reactions.
(§2) Fluorescence. Tau aggregation and disassembly were monitored by following thioflavin S fluorescence as described previously (King et al., 1999). Inhibitory activity of compound I′ was quantified by fitting the resultant data to the relationship
A=A0+(Amax−A0)/[1+10^(log IC50−logX)]
where A and A0 are blank-adjusted fluorescence in the presence and absence of inhibitor (at concentration X), respectively. IC50 values were calculated using the nonlinear regression algorithm of GRAPHPAD PRISM (GraphPad Software Inc.).
Inhibition of tau Polymerization. […] 31, 2000. 2-[[4-(Dimethylamino)phenyl]azo]-6-methoxylbenzothiazole (compound I′), an uncharged (at physiological pH) member of the azo dye family that includes Congo Red, was identified as having inhibitory activity against htau40.
The effect of compound I′ on polymerization of htau40 (2 mM) was quantified using a thioflavin S (2-4 mM) fluorescence assay (King et al., 1999).

Another series has as its target Ab fibrils (Homo sapiens, UniProt P05067). The settings on record: cited from earlier work.
Series [1] has as its system Tau filaments isolated from AD brain. The experiment in a line: Disassembly of authentic tau filaments, electron microscopy. The settings on record: 2 mM compound; 20 min incubation; filaments 0.03 mg/ml. The class given is biochemical, human. As for the experimental part: The ability of compound I′ (2 mM) to depolymerize authentic filaments (0.033 mg/ml) was assayed as above except that timepoints were limited to 0, 10, and 20 min post addition.
Transmission Electron Microscopy. Aliquots (50 ml) of polymerization and depolymerization reactions were removed, fixed with glutaraldehyde (2%), and adsorbed (1 min) onto 300 mesh formvar/carbon-coated copper grids (Electron Microscopy Sciences; Ft. Washington, Pa.). The resultant grids were washed with water, stained (1 min) with 2% uranyl acetate (Electron Microscopy Sciences), washed again with water, blotted dry, and viewed in a Phillips CM 12 microscope operated at 65 kV. Four to six random images from each experimental condition were captured on film at either 13,000× or 22,000× magnification, digitized, calibrated, and imported into Optimas 6.5.1 for quantitation of filament length and number as described previously (King et al., 2000). Individual filaments defined as any object greater than 50 nm in its long axis were counted manually. Counts from each of the 4 to 6 random images per condition are reported as an average±standard deviation for both filament length and number. Length distributions were quantified in 100 nm-wide bins, beginning with 50-150 nm lengths and continuing 151-250 nm, 251-350 nm, etc.
Authentic PHF Disassembly. […]

A further series has as its target T2, htau40^C291A, C322A (Homo sapiens, UniProt P10636, C608A/C639A).
T2 construct: synthetic straight filaments prepared from recombinant full-length tau; made in house
The experiment in a line: Electron microscopy assay of tau filament formation. The class given is biochemical. The settings on record: 200 nM compound (1:40 molar ratio relative to tau), 8 µM htau40^C291A. How it is done:
as §1, with “Control reactions were normalized for DMSO vehicle, which was limited to 5% in all reactions.” left out
Transmission Electron Microscopy. […] Four to six random images from each experimental condition were captured on film at either 13,000× or 22,000× magnification, digitized, calibrated, and imported into Optimas 6.5.1 for quantitation of filament length and number as described previously (King et al., 2000). Individual filaments defined as any object greater than 50 nm in its long axis were counted manually. […] Length distributions were quantified in 100 nm-wide bins, beginning with 50-150 nm lengths and continuing 151-250 nm, 251-350 nm, etc. […]

Series [2] in a line: Charge state at physiological pH. The class given is physicochemical.
The next series has as its target T3, Aβ1-40 (Homo sapiens, UniProt P05067).
T3 construct: Stock solutions of Aβ1-40 (Bachem; Philadelphia, Pa.) were prepared in DMSO; purchased Bachem
The experiment in a line: Aβ1-40 aggregation, turbidity at 350 nm. The class given is biochemical. The settings on record: 20 μM (20 mM in the source) compound, stoichiometric with Aβ. As for the experimental part:
Aβ1-40 Aggregation. Stock solutions of Aβ (1 mM) were prepared in DMSO and filtered (0.2 mM cutoff). Aggregation was initiated by diluting the Aβb stock solution to 20 mM final concentration in aggregation buffer (150 mM NaCl, 10 mM 2-[N-morpholino]ethanesulfonic acid, pH 6.2; final volume 100 mL). Turbidity resulting from Aβ aggregation in the presence (20 mM final concentration) and absence of compound I′ was monitored as a function of time in a Beckman DU640B spectrophotometer at 350 nm versus a DMSO vehicle blank (Snyder et al., Biophys. J. 67: 1216 (1994); Evans et al., Proc. Natl. Acad. Sci. USA 92: 763 (1995)). Cuvettes were rapidly inverted before each reading.
Selectivity of tau Polymerization Antagonism. […] To determine whether amyloid binding was accompanied by polymerization inhibitory activity, the ability of compound I′ to inhibit spontaneous Aβ1-40 assembly was examined. In the absence of ligand, Aβ1-40 (20 mM) polymerized spontaneously after a lag of 1 hour (FIG. 6).

Series [3] concerns the target T4, synthetic tau filaments (htau40) (Homo sapiens, UniProt P10636).
T4 construct: synthetic straight filaments prepared from recombinant full-length tau; made in house
Nature of the series: Disassembly of preassembled synthetic tau filaments, dose response. The class given is biochemical. The settings on record: filaments assembled 3 hours; read-out: IC50, dose response on preassembled tau filaments (data not shown). As for the experimental part:
(§3) Tau Depolymerization. Solutions of purified htau40 or htau40^C291A, C322A (8 mM) were polymerized as described above for 3.5 hours. To assay dilution-mediated depolymerization, aliquots (50 ml) of reaction product were injected into a stirred quartz cuvette containing 1 ml of polymerization buffer with 4 mM thioflavin S and fluorescence decay followed as a function of time (room temperature). When present, arachidonic acid was 50 mM and tau was held at 2 mM.
To assay inhibitor-mediated depolymerization, compound I′ was added to polymerized tau to a final concentration of 0.2 mM into two separate microcentrifuge tubes. Aliquots were removed from each sample after 10, 20, 30, 45, 60 minutes incubation and subjected to fluorescence or electron microscopy assays described below. […]
as §2
To determine whether compound I′ also could destabilize mature filaments and mimic the depolymerization observed in dilution experiments, tau filaments assembled in the presence of thioflavin S for 3 hours under standard conditions were incubated in the presence or absence of compound I′ (200 nM) and examined after various times by electron microscopy and fluorescence.

In series [4] the target is T5, htau40^C291A, C322A filaments (Homo sapiens, UniProt P10636, C608A/C639A).
T5 construct: synthetic straight filaments prepared from recombinant full-length tau; made in house
T5 sequence (P10636 1-441 isoform P10636-8 C291A/C322A): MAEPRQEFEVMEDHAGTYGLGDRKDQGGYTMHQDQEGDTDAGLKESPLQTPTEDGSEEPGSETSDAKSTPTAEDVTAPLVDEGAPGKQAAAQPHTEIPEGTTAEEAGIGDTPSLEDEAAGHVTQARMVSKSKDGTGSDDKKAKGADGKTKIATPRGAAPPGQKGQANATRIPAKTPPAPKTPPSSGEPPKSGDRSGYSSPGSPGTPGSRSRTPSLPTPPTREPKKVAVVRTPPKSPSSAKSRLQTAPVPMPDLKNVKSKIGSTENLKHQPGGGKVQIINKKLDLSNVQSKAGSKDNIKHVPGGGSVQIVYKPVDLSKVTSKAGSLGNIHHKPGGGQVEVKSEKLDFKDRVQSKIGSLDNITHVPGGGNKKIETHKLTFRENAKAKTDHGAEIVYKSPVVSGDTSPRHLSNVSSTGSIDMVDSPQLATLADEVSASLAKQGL
Nature of the series: Inhibitor-mediated depolymerization of preassembled synthetic tau filaments, electron microscopy time course. The class given is biochemical. How it is done: as §3
To assay inhibitor-mediated depolymerization, compound I′ was added to polymerized tau to a final concentration of 0.2 mM into two separate microcentrifuge tubes. Aliquots were removed from each sample after 10, 20, 30, 45, 60 minutes incubation and subjected to fluorescence or electron microscopy assays described below. Control (no compound I′) reactions were normalized for DMSO vehicle, which was limited to 5% in all reactions.
Transmission Electron Microscopy. Aliquots (50 ml) of polymerization and depolymerization reactions were removed, fixed with glutaraldehyde (2%), and adsorbed (1 min) onto 300 mesh formvar/carbon-coated copper grids (Electron Microscopy Sciences; Ft. Washington, Pa.). […] Four to six random images from each experimental condition were captured on film at either 13,000× or 22,000× magnification, digitized, calibrated, and imported into Optimas 6.5.1 for quantitation of filament length and number as described previously (King et al., 2000). Individual filaments defined as any object greater than 50 nm in its long axis were counted manually. […] Length distributions were quantified in 100 nm-wide bins, beginning with 50-150 nm lengths and continuing 151-250 nm, 251-350 nm, etc.
To determine whether compound I′-mediated tau depolymerization proceeded by an endwise mechanism, htau40^C291A, C322A (4 mM) was polymerized over a 3.5 hour period after which time compound I′ (200 nM) or DMSO vehicle alone was added and filament lengths were measured over a 1 hour “chase” by electron microscopy. […]

Setting [5] is: approximate values given in the description, read-out: IC50, arachidonic acid polymerization of full length tau protein.
Setting [6] is: after 1 hour incubation with 200 nM compound.

T1 sequence (P10636 1-441 isoform P10636-8): as the sequence (P10636 1-441 isoform P10636-8 C291A/C322A) above, with A291C, A322C counted along it
T3 sequence (P05067 672-711 limits assumed): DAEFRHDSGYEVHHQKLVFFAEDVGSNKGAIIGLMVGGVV
T2 sequence (P10636 1-441 isoform P10636-8 C291A/C322A): as the sequence (P10636 1-441 isoform P10636-8 C291A/C322A) above
T4 sequence (P10636 1-441 isoform P10636-8): as the sequence (P10636 1-441 isoform P10636-8 C291A/C322A) above, with A291C, A322C counted along it
Ab fibrils, sequence (P05067 672-713 limits assumed): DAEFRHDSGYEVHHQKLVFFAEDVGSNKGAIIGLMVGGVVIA

The IC50 is the concentration that gives 50% inhibition. As for `CCN(CCO)c1ccc(N=Nc2nc3ccc(OC)cc3s2)cc1` [2-[[4-(N-ethyl-N-β-hydroxyethylamino)phenyl]azo]-6-methoxybenzothiazole], the IC50 at recombinant human htau40 (setting [5]) was approximately 60 nM.

Turning to `CCN(CC)c1ccc(N=Nc2nc3ccc(OC)cc3s2)cc1` [2-[[4-(didethylamino)phenyl]azo]-6-methoxybenzothiazole], the IC50 on recombinant human htau40 (setting [5]) was approximately 60 nM.

For the compound `CCC(=Cc1sc2ccc(OC)cc2[n+]1CCO)C=C1Sc2ccc(OC)cc2N1CCO` [3-(2-hydroxy-ethyl)-2-{2-[3-(2-hydroxyl-ethyl)-5-methoxy-3H-benzothiazol-2-ylidenemethyl]-but-1-enyl}-5-methoxy-benzothiazol-3-ium], at recombinant human htau40 (setting [5]), the IC50 was approximately 40 nM.

Take `Cc1ccc(N=Nc2ccc(-c3ccc(N=Nc4ccc(C)c(C(=O)O)c4O)cc3)cc2)c(O)c1C(=O)O` [3-[4′-(3-carboxy-2-hydroxy4-methyl-cyclohexa-1,5-dienylazo)-biphenyl-4-ylazo]-2-hydroxy-6-methyl benzoic acid]: at recombinant human htau40 (setting [5]), the half-maximal inhibitory concentration (IC50) was approximately 400 nM.

On to `Cc1cc(N=Nc2c(O)ccc3ccccc23)c(CCCC(=O)O)s1` [4-[3-(2-hydroxy-naphthalen-1-ylazo)-5-methyl-thiophen-2-yl]-butyric acid], for which, on recombinant human htau40 (setting [5]), the IC50 is approximately 700 nM.

For `O=C1Nc2ccccc2/C1=N/NC(=O)c1cc2ccccc2cc1O` [Compound III, 3-hydroxy-napthalene-2-carboxylic acid (2-oxo-1,2-dihydro-indol-3-ylidene)-hydrazide], the concentration for half-maximal inhibition (IC50) on recombinant human htau40 (setting [5]) is approximately 600 nM.

Consider `Nc1ccc(-c2nc3ccc(-c4nc5ccc(N)cc5[nH]4)cc3[nH]2)cc1` [Ro 90-7501], for which the “effect on Ab fibrils” value at Ab fibrils is “inhibit polymerization and promote disaggregation”.

Turning to `COc1ccc2nc(N=Nc3ccc(N(C)c4ccccc4)cc3)sc2c1` [[4-(6-methoxy-benzothiazol-2-ylazo)phenyl]-methylphenyl amine], on recombinant human htau40 (setting [5]), the IC50 was approximately 60 nM.

As for `COc1ccc2nc(/N=N/c3ccc(N(C)C)cc3)sc2c1` [compound I′, 2-[[4-(dimethylamino)phenyl]azo]-6-methoxylbenzothiazole], the “total filament length, % of DMSO vehicle control” value in series [1] is 14±9% and 10-50%. Also, on htau40^C291A, C322A, the total filament number, % of control at 0.2 µM is 14.2 ± 0.6% and the “total filament number, % of control values” is 10-20%. The “charge at physiological pH” value in series [2] is “uncharged”. Besides, the “IC50 as % of the molar concentration of arachidonic acid” value on recombinant human htau40 was less than 0.1%. Moreover, the IC50 on recombinant human htau40 (setting [5]) was < 100 nM and ~60 nM. For the same compound, the concentration for half-maximal inhibition (IC50) at recombinant human htau40 (arachidonic acid-induced, 3.5 h, room temperature, % of DMSO vehicle control fluorescence, read-out: IC50, inhibition of htau40 polymerization (thioflavin S fluorescence)) was determined as 54 ± 6 nM. The “effect on Aβ1-40 polymerization / assembly kinetics” value on Aβ1-40 is recorded as “did not inhibit Aβ polymerization; also recorded: does not interfere with Aβ1-40 assembly; also recorded: did not alter Aβ1-40 assembly kinetics significantly”. The IC50 in series [3] stood at 91 ± 13 nM. In addition, in series [4] (200 nM compound added to filaments polymerized 3.5 h), the “initial first order rate of decrease of total filament length per field” value worked out at 0.042 min⁻¹. For the same compound, in series [4] (setting [6]), the “total filament length, % of vehicle only controls” value is given as 21±6% and the “total filament number, % of vehicle only controls” value was determined as 84±26%.

With thioflavin S [reference compound], the “effect on tau polymerization at the concentration required for filament binding” value on recombinant human htau40 (concentration about EC50 of binding) is given as “not sufficient to inhibit or reverse tau polymerization”.

These data come from US6479528B1, “Methods for inhibiting or reversing tau filament formation polymerization” (Neuronautics, Inc., priority 2001, dated 2002).
